Data: patent US20240011030A1, “TREATMENTS FOR RETINAL DEGENERATIVE DISEASES” (Novartis AG, priority 2020, published 2024)

Assays:
Type in all cases: cell-based, human
DDX58/RIG-I [1] = experiment: CRISPR/Cas9 KO, IFNβ secretion by ELISA after nucleic acid stimulation; settings: ARPE19-Cas9 cells, 0.25 μg/ml nucleic acid for 24 hours, FIG. 4A
Description: Further validation of the importance of RIG-I as an intracellular nucleic acid sensor was performed using CRISPR/Cas9 KO experiments in ARPE-19 cells. An ARPE-19 cell line stably expressing Cas9 (ARPE19-Cas9) was generated, along with control gRNA and RIG-I gRNA-transduced cell lines. ARPE-19 control gRNA and ARPE-19 RIG-I gRNA cells were generated by sgRNA expression in ARPE-19-Cas9 cells by lentiviral infection. The sgRNA sequence targeting DDX58/RIG-I was 5′-[…]-3′ (SEQ ID NO:1). Control sgRNA sequences used were: 5′-[…]-3′ (SEQ ID NO:8), 5′-[…]-3′ (SEQ ID NO:9), 5′-[…]-3′ (SEQ ID NO:10), and 5′-[…]-3′ (SEQ ID NO: 11). […] All cells were stimulated with 0.25 μg/ml nucleic acid for 24 hours, after which IFNβ secretion was measured by ELISA.
ARPE-19 cells stably expressing the Cas9 gene (ARPE19-Cas9) were generated by lentiviral transduction of ARPE-19 cells. […]
For ELISA, assays were run using Meso Scale Discovery plates (Meso Scale Diagnostics, Rockville, MD). […] Lysates or conditioned media were measured in 384-well plates using antibody pairs for ISG15 (R&D #AF4845, #A-830), IFNβ (R&D #DY814), IFNα1 (abcam #ab215408), IFNγ (R&D #DY285B), IFNλ1/3 (R&D #DY1598B), and cGAS (Cayman #23853, CST #66546). Protein levels were measured according to manufacturer instructions, and detected on a Meso Sector S 600 imager.

DDX58/RIG-I [2] = experiment: CRISPR/Cas9 KO, IL-6 secretion by ELISA after nucleic acid stimulation; settings: ARPE-19-RIG-I KO, 0.25 μg/ml nucleic acid for 24 hours, FIG. 4B
Description: In addition to the type I IFN response, nucleic acid sensing can also activate NFκB-dependent cytokine release. IL-6 secretion was measured in ARPE19-Cas9, Control gRNA, and RIG-I gRNA cell line cultures 24 hours after nucleic acid stimulation to evaluate nucleic acid-induced NFκB activation in RPE cells. All cells were stimulated with 0.25 μg/ml nucleic acid for 24 hours, after which IL-6 secretion was measured by ELISA.
(§1) ARPE-19 cells stably expressing the Cas9 gene (ARPE19-Cas9) were generated by lentiviral transduction of ARPE-19 cells. Virus was harvested from supernatants of HEK-293T cells (ATCC) cotransfected with the in-house lentiviral vector pNGx_LV_c010 (39) and Lentiviral Packaging Plasmid Mix (Cellecta, Mountain View, CA; #CPCP-K2A) using TransIT-293 Transfection Reagent (MirusBio, Madison, WI). ARPE19-Cas9 cells were selected with 125 μg/mL HygromycinB (Invitrogen, Carlsbad, CA) and Cas9 expression was verified by western blot using Anti-FLAG primary antibody (Sigma-Aldrich #F1804). ARPE-19 RIG-I KO cells were generated by sgRNA expression in ARPE-19-Cas9 cells by lentiviral infection using the in-house lentiviral vector pNGx_LV_g003 (39). The sgRNA sequence targeting DDX58/RIG-I is 5′-[…]-3′ (SEQ ID NO: 1).

DDX58/RIG-I [3] = experiment: anti-RIG-I/DDX58 western blot verifying knockout; settings: ARPE-19-Cas9 cells transduced with gRNA, FIG. 10D
Description: as §1, with “1). Control sgRNA sequences were:” for “1).”
Knockout was verified by western blot (FIG. 10D).
For western blot, samples (30 μg of protein) were dissolved in sample buffer (Invitrogen) and boiled for 5 min at 100° C. The sample was then separated by Criterion™ TGX™ precast gel electrophoresis and electrotransferred onto nitrocellulose membranes (Bio-Rad, Hercules, CA). […] The immuno-reactive proteins were detected using SuperSignal™ West Femto Maximum sensitivity substrate (ThermoFisher Scientific) and imaged on FluorChem M (ProteinSimple, San Jose, CA).

RPE cells = experiment: ISG15 induction by IFN stimulation (ELISA); settings: THP1, ARPE-19 or iPS-RPE cells, IFNs up to 100 μg/ml, 24 hours, FIGS. 2D to 2F
Description: To test whether IFNs can induce an IFN response and, if so, which IFNs can induce an IFN response, cells were treated with different IFNs (IFNα1, IFNβ, IFNγ, or IFNλ1/2/3), and ISG15 induction was measured. Cells were treated with different IFN types at 100 ng/ml each (FIG. 2D) or 0 ng/ml IFN, 0.1 ng/ml IFN, 1 ng/ml IFN, 10 ng/ml IFN, or 100 ng/ml IFN (FIGS. 2E and 2F). ISG15 expression in was detected by ELISA 24 hours after treatment as described above, using antibody pairs for ISG15 (R&D #AF4845, #A-830).
For ELISA, assays were run using Meso Scale Discovery plates (Meso Scale Diagnostics, Rockville, MD). Lysates were extracted using cell lysis buffer (CST #9803), and supplemented with protease and phosphatase inhibitors. Lysates or conditioned media were measured in 384-well plates using antibody pairs for ISG15 (R&D #AF4845, #A-830), IFNβ (R&D #DY814), IFNα1 (abcam #ab215408), IFNγ (R&D #DY285B), IFNλ1/3 (R&D #DY1598B), and cGAS (Cayman #23853, CST #66546). Protein levels were measured according to manufacturer instructions, and detected on a Meso Sector S 600 imager.

Molecule	IFNβ secretion response to all nucleic acid species tested (DDX58/RIG-I [1])	poly(I:C)-induced IL-6 release (DDX58/RIG-I [2])	DDX58 protein by western blot (DDX58/RIG-I [3])	ISG15 induction in response to IFN stimulation (RPE cells)
5′-ACTCACCCTCCCTAAACCAG-3′ (expressed or natural sequence) [RIG-I gRNA]	completely abrogated	only partially reduced	lack of detectable DDX58 protein	–
IFNα: type I interferon purchased from R&D Systems (protein, UniProt P01562 24-189, looked up) Interferon alpha-1/13: CDLPETHSLDNRRTLMLLAQMSRISPSSCLMDRHDFGFPQEEFDGNQFQKAPAISVLHELIQQIFNLFTTKDSSAAWDEDLLDKFCTELYQQLNDLEACVMQEERVGETPLMNADSILAVKKYFRRITLYLTEKKYSPCAWEVVRAEIMRSLSLSTNLQERLRRKE	–	–	–	primarily responded
